Experimental data taken from patent US12630509B2, “Heterocyclic NMDA antagonists” (TAKEDA PHARMACEUTICAL COMPANY LIMITED, priority 2019, dated 2026).

target: NMDA receptor composed of four subunits including two sets of heterodimers of NR1 and NR2B (GRIN1/GRIN2B) expressed in HEK 293 cells (Homo sapiens, UniProt Q13224); experiment: NR2B Ca2+ influx assay; assay type: cell-based; conditions: HEK293, final concentration 10 μM; glutamic acid and glycine induced Ca2+ influx, HEK 293 cells expressing human GRIN1 and GRIN2B; read-out: % inhibited(10 μM)
Protocol: The HEK 293 cells that express GRIN1 and GRIN2B were purchased from ChanTest (human NMDA (NR1/NR2B) receptor-expressing, stable replicating cell line (HEK 293) catalog no. CT6121).
Intracellular calcium-ion (Ca^2+) influx caused by glycine and glutamic acid respectively binding to NR1 and NR2B was used as an index of NMDA receptor activation.
The HEK 293 cells expressing GRIN1 and GRIN2B were cultured in a cell culture flask in an incubator (37° C., in 5% CO2) using a DMEM/F-12 (Cosmo Bio, 10-092-CM) medium supplemented with 10% FBS (fetal bovine serum, AusGene), 100 units/mL penicillin, 100 μg/mL streptomycin, 500 μg/mL neomycin, 100 μg/mL Zeocin (registered trademark of Invitrogen), and 5 μg/mL blasticidin.
On the day before the assay, the cells were detached from the flask by trypsinization, suspended in a seeding medium (DMEM (Invitrogen, 31053) supplemented with 10% FBS, 100 units/mL penicillin, and 100 μg/mL streptomycin) so as to be 8×10^5 cells/mL, seeded at 25 μL per well in a 384-well plate (Falcon, 356663) so as to be 20,000 cells/well, and cultured overnight using the incubator. On the day of the assay, tetracycline (Wako Pure Chemical, 209-16561) was diluted with the seeding medium at 2 μg/mL, and added at 25 μL/well to the plate into which the cells were seeded, and this was cultured for 2 hours in the incubator. Afterward, the medium was removed and washed with an assay buffer (137 mM NaCl, 4 mM KCl, 1.8 mM CaCl2), 10 mM HEPES (pH 7.2), 10 mM glucose, 0.1% BSA) at 50 μL/well. Next, a loading buffer (buffer wherein 2.5 μM Fluo-4 AM, 2 mM amaranth, and 1 mM tartrazine are added to the assay buffer) was added at 25 μL/well, and this was incubated in the incubator for 30 minutes and for 15 minutes at room temperature. Solutions wherein the Example compounds were diluted with the above-mentioned assay buffer so as to be 30 μM (final concentration 10 μM) were added at 25 μL/well, and these were left standing for 15 minutes at room temperature. Using FDSS7000EX/μCELL (Hamamatsu Photonics), an assay buffer including 30 μM glutamic acid and 30 μM glycine was added at 25 μL/well, and a fluorescence signal of an Excitation wavelength of 480 nm and an Emission wavelength of 540 nm was measured every 3 seconds for 5 minutes. The inhibitory activity was calculated as a relative activity value (inhibitory rate) wherein relative to an integrated value of florescence values of each well, an integrated value of fluorescence values of a well into which an assay buffer without glutamic acid and glycine was defined as 100% inhibition.

NMDA receptor composed of four subunits including two sets of heterodimers of NR1 and NR2B (GRIN1/GRIN2B) expressed in HEK 293 cells, sequence (Q13224 27-1484, other chains not shown): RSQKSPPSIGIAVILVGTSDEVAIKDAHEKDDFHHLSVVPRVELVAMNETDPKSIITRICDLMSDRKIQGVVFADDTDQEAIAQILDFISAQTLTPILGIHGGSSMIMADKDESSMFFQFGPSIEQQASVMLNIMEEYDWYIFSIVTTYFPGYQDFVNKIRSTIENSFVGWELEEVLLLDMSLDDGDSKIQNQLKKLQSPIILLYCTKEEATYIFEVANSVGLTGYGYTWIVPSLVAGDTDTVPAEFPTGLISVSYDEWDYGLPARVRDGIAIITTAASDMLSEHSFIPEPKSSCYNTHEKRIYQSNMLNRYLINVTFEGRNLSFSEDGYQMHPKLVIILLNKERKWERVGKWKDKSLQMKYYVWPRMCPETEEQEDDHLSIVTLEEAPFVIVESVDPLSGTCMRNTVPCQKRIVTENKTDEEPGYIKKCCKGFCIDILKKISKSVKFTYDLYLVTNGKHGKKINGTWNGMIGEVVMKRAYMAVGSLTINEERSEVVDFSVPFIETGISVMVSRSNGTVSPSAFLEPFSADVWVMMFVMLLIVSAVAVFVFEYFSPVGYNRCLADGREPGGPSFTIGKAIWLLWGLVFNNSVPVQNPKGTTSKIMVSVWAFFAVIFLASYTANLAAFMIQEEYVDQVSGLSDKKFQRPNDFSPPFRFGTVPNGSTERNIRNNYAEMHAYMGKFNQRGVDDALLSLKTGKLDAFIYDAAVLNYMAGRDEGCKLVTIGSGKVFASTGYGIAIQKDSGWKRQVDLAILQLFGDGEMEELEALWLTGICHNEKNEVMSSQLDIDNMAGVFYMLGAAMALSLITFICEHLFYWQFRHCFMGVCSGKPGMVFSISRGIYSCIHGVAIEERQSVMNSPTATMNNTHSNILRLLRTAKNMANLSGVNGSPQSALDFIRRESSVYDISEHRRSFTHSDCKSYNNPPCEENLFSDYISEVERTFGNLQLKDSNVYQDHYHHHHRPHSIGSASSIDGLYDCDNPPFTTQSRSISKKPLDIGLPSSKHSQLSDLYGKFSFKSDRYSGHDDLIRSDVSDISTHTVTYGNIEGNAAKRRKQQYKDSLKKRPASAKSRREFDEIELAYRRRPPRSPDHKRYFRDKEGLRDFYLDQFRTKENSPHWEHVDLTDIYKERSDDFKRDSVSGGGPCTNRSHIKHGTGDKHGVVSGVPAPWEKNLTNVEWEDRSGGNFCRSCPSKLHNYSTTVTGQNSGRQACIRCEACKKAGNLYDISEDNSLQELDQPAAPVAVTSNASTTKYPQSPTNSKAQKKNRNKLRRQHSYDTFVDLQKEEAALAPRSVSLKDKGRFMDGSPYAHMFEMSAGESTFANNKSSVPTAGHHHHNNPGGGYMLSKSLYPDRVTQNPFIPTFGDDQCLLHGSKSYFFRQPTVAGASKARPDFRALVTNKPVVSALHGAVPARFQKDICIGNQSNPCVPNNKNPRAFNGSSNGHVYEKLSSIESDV

inhibition at 10 µM | Structure (SMILES)
95% | Cc1ccc(Oc2ccc(CN3C(=O)C[C@H](O)[C@@H]3C)nc2)cc1 [Example 16, (4S,5S)-4-hydroxy-5-methyl-1-{[5-(4-methylphenoxy)pyridin-2-yl]methyl}pyrrolidin-2-one]
98% | Cc1ccc(Oc2ccc(CN3C(=O)OC[C@@H]3C)cc2)cc1 [Example 18, (4S)-4-methy-3-{[4-(4-methylphenoxy)phenyl]methyl}1,3-oxazolidin-2-one]
82% | Cc1ccc(Oc2cnc(CN3C(=O)C[C@H](O)[C@@H]3C)cn2)cc1 [Example 19, (4S,5S)-4-hydroxy-5-methyl-1-{[5-(4-methylphenoxy)pyrazin-2-yl]methyl}pyrrolidin-2-one]
97% | Cc1ccc(Oc2ccc(CN3C(=O)OC[C@@H]3C)cn2)cc1 [Example 20, (4S)-4-methyl-3-{[6-(4-methylphenoxy)pyridin-3-yl]methyl}-1,3-oxazolidin-2-one]
98% | Cc1ccc(Oc2ccc(CN3C(=O)CC[C@@H]3C)cn2)cc1 [Example 21, (5S)-5-methyl-1-{[6-(4-methylphenoxy)pyridin-3-yl]methyl}pyrrolidin-2-one]
95% | Cc1ccc(Oc2ncc(CN3C(=O)CC[C@@H]3C)cn2)cc1 [Example 22, (5S)-5-methyl-1-{[2-(4-methylphenoxy)pyrimidin-5-yl]methyl}pyrrolidin-2-one]
94% | Cc1ccc(Oc2ncc(CN3C(=O)OC[C@@H]3C)cn2)c(F)c1 [Example 23, (4S)-3-{[2-(2-fluoro-4-methylphenoxy)pyrimidin-5-yl]methyl}-4-methyl-1,3-oxazolidin-2-one]
93% | C[C@H]1COC(=O)N1Cc1cnc(Oc2c(F)cc(F)cc2F)nc1 [Example 24, (4S)-4-methyl-3-{[2-(2,4,6-trifluorophenoxy)pyrimidin-5-yl]methyl}-1,3-oxazolidin-2-one]
96% | Cc1ccc(Oc2ccc(CN3C(=O)OC[C@@H]3C)cn2)c(F)c1 [Example 25, (4S)-3-{[6-(2-fluoro-4-methylphenoxy)pyridin-3-y]methyl}-4-methyl-1,3-oxazolidin-2-one]
97% | Cc1ccc(Oc2ccc(CN3C(=O)C[C@H](O)[C@@H]3C)cn2)c(F)c1 [Example 26, (4S,5S)-1-{[6-(2-fluoro-4-methylphenoxy)pyridin-3-yl]methyl}-4-hydroxy-5-methylpyrrolidin-2-one]
97% | C[C@H]1[C@@H](O)CC(=O)N1Cc1ccc(Oc2c(F)cc(F)cc2F)nc1 [Example 27, (4S,5S)-4-hydroxy-5-methyl-1-{[6-(2,4,6-trifluorophenoxy)pyridin-3-yl]methyl}pyrrolidin-2-one]
96% | C[C@H]1COC(=O)N1Cc1ccc(Oc2c(F)cc(F)cc2F)nc1 [Example 28, (4S)-4-methyl-3-{[6-(2,4,6-trifluorophenoxy)pyridin-3-yl]methyl}-1,3-oxazolidin-2-one]
93% | Cc1ccc(Oc2ccc(CN3C(=O)CCC3C(F)(F)F)cn2)cc1 (centres unmarked) [Example 29, 1-{[6-(4-methylphenoxy)pyridin-3-yl]methyl}-5-(trifluoromethyl)pyrrolidin-2-one]
90% | Cc1ccc(Oc2ncc(CN3C(=O)OC[C@@H]3C)cn2)cc1 [Example 30, (4S)-4-methyl-3-{[2-(4-methylphenoxy)pyrimidin-5-yl]methyl}-1,3-oxazolidin-2-one]
97% | Cc1cc(F)c(Oc2ccc(CN3C(=O)C[C@H](O)[C@@H]3C)cn2)c(F)c1 [Example 31, (4S,5S)-1{[-6-(2,6-difluoro-4-methylphenoxy)pyridin-3-yl]methyl}4-hydroxy-5-methylpyrrolidin-2-one]
92% | Cc1cc(F)c(Oc2ncc(CN3C(=O)OC[C@@H]3C)cn2)c(F)c1 [Example 32, (4S)-3-{[2-(2,6-difluoro-4-methylphenoxy)pyrimidin-5-yl]methyl}-4-methyl-1,3-oxazolidin-2-one]
97% | C[C@H]1CNC(=O)N1Cc1ccc(Oc2c(F)cc(F)cc2F)nc1 [Example 33, (5S)-5-methyl-1-{[6-(2,4,6-trifluorophenoxy)pyridin-3-yl]methyl}imidazolidin-2-one]

The next lines start with the compound.

Structure (SMILES) | inhibition at 10 µM
Cc1ccc(Oc2ccc(CN3C(=O)CCC3C)cc2)cc1 (centres unmarked) [Example 1, 5-methyl-1-{[4-(4-methylphenoxy)phenyl]methyl}pyrrolidin-2-one] | 99%
Cc1ccc(Oc2cnc(CN3C(=O)CCC3C)cn2)cc1 (centres unmarked) [Example 4, 5-methyl-1-{[5-(4-methylphenoxy)pyrazin-2-yl]methyl}yrrolidin-2-one] | 93%
Cc1ccc(Oc2ncc(CN3C(=O)CCC3C)cn2)cc1 (centres unmarked) [Example 5, 5-methyl-1-{[2-(4-methylphenoxy)pyrimidin-5-yl]methyl}pyrrolidin-2-one] | 91%
Cc1ccc(Oc2ccc(CN3C(=O)C[C@H](O)[C@@H]3C)cc2)cc1 [Example 6, (4S,5S)-4-hydroxy-5-methyl-1-{[4-(4-methylphenoxy)phenyl]methyl}pyrrolidin-2-one] | 97%
CC[C@H]1[C@@H](O)CC(=O)N1Cc1ccc(Oc2ccc(C)cc2)cc1 [Example 7, (4S,5S)-5-ethyl-4-hydroxy-1-{[4-(4-methylphenoxy)phenyl]methyl}pyrrolidin-2-one] | 98%
Cc1ccc(Oc2cnc(CN3C(=O)CCC3C)nc2)cc1 (centres unmarked) [Example 8, 5-methyl-1{[5-(4-methylphenoxy)pyrimidin-2-yl]methyl}pyrrolidin-2-one] | 53%
C[C@H]1[C@@H](O)CC(=O)N1Cc1ccc(Oc2ccc(F)cc2)cc1 [Example 9, (4S,5S)-1-{[4-(4-fluorophenoxy)phenyl]methyl}-4-hydroxy-5-methylpyrrolidin-2-one] | 96%
Cc1ccc(Oc2ccc(CN3C(=O)C[C@@H](O)[C@@H]3C)cc2)cc1 [Example 10, (4R,5S)-4-hydroxy-5-methyl-1-{[4-(4-methylphenoxy)phenyl]methyl}pyrrolidin-2-one] | 94%
Cc1ccc(Oc2ccc(CN3C(=O)C[C@H](O)[C@H]3C)cc2)cc1 [Example 11, (4S,5R)-4-hydroxy-5-methyl-1-{[4-(4-methylphenoxy)pheny]methyl}pyrrolidin-2-one] | 91%
Cc1ccc(Oc2ccc(CN3C(=O)C[C@@H](O)[C@H]3C)cc2)cc1 [Example 12, (4R,5R)-4-hydroxy-5-methyl-1-{[4-(4-methylphenoxy)pheny]methyl}pyrrolidin-2-one] | 93%
Cc1ccc(Oc2ccc(CN3C(=O)C[C@H](O)[C@@H]3C)cn2)cc1 [Example 13, (4S,5S)-4-hydroxy-5-methyl-1-{[6-(4-methylphenoxy)pyridin-3-yl]methyl}pyrrolidin-2-one] | 97%
Cc1ccc(Oc2ncc(CN3C(=O)C[C@H](O)[C@@H]3C)cn2)cc1 [Example 15, (4S,5S)-4-hydroxy-5-methyl-1-{[2-(4-methylphenoxy)pyrimidin-5-yl]methyl}pyrrolidin-2-one] | 90%

same assay, conditions: final concentration 10 μM; glutamic acid and glycine induced Ca2+ influx, HEK 293 cells expressing human GRIN1 and GRIN2B

% inhibited(10 μM) | Structure (SMILES)
96% | Cc1ccc(Oc2ccc(CN3C(=O)C[C@H](O)[C@@H]3C)cn2)cc1.Cl [Example 14, (4S,5S)-4-hydroxy-5-methyl-1-{[6-(4-methylphenoxy)pyridin-3-yl]methyl}pyrrolidin-2-one]

same assay, conditions: final concentration 10 μM; glutamic acid and glycine induced Ca2+ influx, HEK 293 cells expressing human GRIN1 and GRIN2B; 10 µM

% inhibited(10 μM) | Structure (SMILES)
98% | Cc1ccc(Oc2ccc(CN3C(=O)CCC3C)cc2)cc1 (single isomer, unassigned) [Example 2, 5-methyl-1-{[4-(4-methylphenoxy)pheny]methyl}pyrrolidin-2-one (optical isomer)]
99% | Cc1ccc(Oc2ccc(CN3C(=O)CCC3C)cc2)cc1 (single isomer, unassigned) [Example 3, 5-methyl-1-{[4-(4-methylphenoxy)phenyl]methyl}pyrrolidin-2-one (optical isomer)]
